Two compounds from article PMC10223454, “Functional Characterization of a New Degradation Peptide BmTX4-P1 from Traditional Chinese Scorpion Medicinal Material” (Toxins, 2023) can be followed below.

Peptide text beside a SMILES is read from it.

Data set [1] has as its target T1, hKv1.3 channel (Homo sapiens, UniProt P22001).
T1 construct: expressed in transfected cells
Briefly: whole-cell patch clamp, hKv1.3 channel currents. The class given is cell-based. Conditions: for IC50: peak tail current, Hill equation fit. The text has this: (§1) The source of potassium channel plasmids was described in detail in previous articles. The cDNA encoding hKv1.1 channel, hKv1.3 channel, and rKv4.3 channel were subcloned into the vector of pCDNA3.1(+). The cDNA encoding hKv1.2 channel, hKv1.6 channel, hKv3.2 channel, hERG channel, and mKv4.1 channel were subcloned into the vector of pIRES2-EGFP. The cDNA encoding rKv4.2 was subcloned into the vector of pEGFP-N1.
(§2) DMEM (Gibco, Pittsburgh, PA, USA) with 10% fetal bovine serum and 1% penicillin/streptomycin was applied to culture HEK293T cells in an incubator with 5% CO2 at 37 °C. According to the manufacturer’s instructions, ExFect Transfection Reagent (Vazyme, Nanjing, China) was used to co-transfect the plasmids of pEGFP-N1 and potassium channels into HEK293T cells. Fluorescence-positive cells were selected for electrophysiological experiments after transfection for 12 h to 24 h.
(§3) Whole-cell channel currents were measured and recorded by an EPC-10 patch-clamp amplifier controlled by PatchMaster (HEKA Elektronik, Lambrecht, Germany). The internal patch pipette solution and bath solution were prepared according to the protocol in previously published references. Bath solution with 0.01% BSA (Gibco, Pittsburgh, PA, USA) was used to dissolve peptides for electrophysiological testing. The external recording bath solution was exchanged by the MPS-2 multichannel microperfusion system (INBIO Inc., Wuhan, China). The currents of different potassium channels were generated and recorded following the respective protocols according to previously published references. The results of the electrophysiological experiment are presented as the mean ± SE, and more than three cells from each sample were examined (n ≥ 3).
(§4) The software of Clampfit (Molecular Devices, Sunnyvale, CA, USA) and Sigmaplot (IBM SPSS, Chicago, IL, USA) were applied to analyze the electrophysiological data. In order to obtain IC50 values, the concentrations of peptides and currents of potassium channels were used to fit the modified Hill equation for dose–response relationships: Ipeptide/Icontrol = 1/[1 + Cpeptide/IC50], in which Ipeptide and Icontrol represent the peak tail current of potassium channels in the presence and absence of peptide, Cpeptide represents the concentration of peptides and IC50 represents the half-maximum inhibition concentration. The results are presented as the mean ± SE.
In general terms: Patch clamp records ionic current or voltage across a cell membrane.

Data set [2] addresses T2, hKv1.2 channel (Homo sapiens, UniProt P16389).
T2 construct: expressed in transfected cells
Briefly: whole-cell patch clamp, hKv1.2 channel currents. The class given is cell-based. The conditions noted are these: for IC50: peak tail current, Hill equation fit.
Source text: as §1, §2, §3, §4

For data set [3], the system named is hKv1.1 channel. Briefly: whole-cell patch clamp, hKv1.1 channel currents. The class given is cell-based, human. Conditions: 1 µM, n ≥ 3.
Source text: as §1, §2
(§5) Whole-cell channel currents were measured and recorded by an EPC-10 patch-clamp amplifier controlled by PatchMaster (HEKA Elektronik, Lambrecht, Germany). The internal patch pipette solution and bath solution were prepared according to the protocol in previously published references. […] The currents of different potassium channels were generated and recorded following the respective protocols according to previously published references. […]

Data set [4] concerns rKv4.1 channel. Briefly: whole-cell patch clamp, rKv4.1 channel currents. Conditions: 1 µM, transiently transfected HEK293 cells, mean ± SE, n ≥ 3. The class given is cell-based, rat.
Data set [5] concerns hKv3.2 channel. Briefly: whole-cell patch clamp, hKv3.2 channel currents. The format is cell-based, human. Conditions: 1 µM, transiently transfected HEK293 cells, mean ± SE, n ≥ 3.
Source text: as §1, §2, §5

Data set [6] concerns rKv4.2 channel. Briefly: whole-cell patch clamp, rKv4.2 channel currents. The class given is cell-based, rat. Conditions: 1 µM, transiently transfected HEK293 cells, mean ± SE, n ≥ 3.
Source text: as §1, §2, §5

Data set [7] has as its system hERG channel. Briefly: in vitro. The format is cell-based. Conditions: human, whole-cell patch clamp, transiently transfected HEK293 cells, mean ± SE, n ≥ 3, read-out: inhibition of hERG channel currents.
Source text: as §1, §2, §5

Data set [8] relates to mKv4.3 channel. Briefly: whole-cell patch clamp, mKv4.3 channel currents. The class given is cell-based, mouse. Conditions: 1 µM, transiently transfected HEK293 cells, mean ± SE, n ≥ 3.
In data set [9] the test system is hKv1.6 channel. Briefly: whole-cell patch clamp, hKv1.6 channel currents. The conditions noted are these: 1 µM, transiently transfected HEK293 cells, mean ± SE, n ≥ 3. The format is cell-based, human.
Source text: as §1, §2, §5

Where [10] appears, read: 1 µM, transiently transfected HEK293 cells, mean ± SE, n ≥ 3.

T1 sequence (P22001 whole entry): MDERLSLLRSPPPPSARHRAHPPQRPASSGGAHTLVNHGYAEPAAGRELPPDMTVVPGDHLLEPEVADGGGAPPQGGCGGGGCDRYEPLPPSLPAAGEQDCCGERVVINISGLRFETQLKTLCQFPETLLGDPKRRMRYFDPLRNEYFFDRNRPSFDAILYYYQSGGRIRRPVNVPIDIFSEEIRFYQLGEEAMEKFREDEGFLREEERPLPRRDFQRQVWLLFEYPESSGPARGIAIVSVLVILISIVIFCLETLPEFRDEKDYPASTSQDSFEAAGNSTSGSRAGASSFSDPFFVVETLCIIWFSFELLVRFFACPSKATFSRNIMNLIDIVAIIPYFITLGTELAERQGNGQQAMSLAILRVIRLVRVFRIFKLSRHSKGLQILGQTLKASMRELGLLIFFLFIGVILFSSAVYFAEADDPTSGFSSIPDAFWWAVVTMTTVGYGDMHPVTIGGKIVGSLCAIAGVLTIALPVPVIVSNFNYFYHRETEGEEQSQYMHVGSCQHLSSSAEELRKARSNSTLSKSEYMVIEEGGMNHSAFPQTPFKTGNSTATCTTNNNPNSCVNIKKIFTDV
T2 sequence (P16389 whole entry): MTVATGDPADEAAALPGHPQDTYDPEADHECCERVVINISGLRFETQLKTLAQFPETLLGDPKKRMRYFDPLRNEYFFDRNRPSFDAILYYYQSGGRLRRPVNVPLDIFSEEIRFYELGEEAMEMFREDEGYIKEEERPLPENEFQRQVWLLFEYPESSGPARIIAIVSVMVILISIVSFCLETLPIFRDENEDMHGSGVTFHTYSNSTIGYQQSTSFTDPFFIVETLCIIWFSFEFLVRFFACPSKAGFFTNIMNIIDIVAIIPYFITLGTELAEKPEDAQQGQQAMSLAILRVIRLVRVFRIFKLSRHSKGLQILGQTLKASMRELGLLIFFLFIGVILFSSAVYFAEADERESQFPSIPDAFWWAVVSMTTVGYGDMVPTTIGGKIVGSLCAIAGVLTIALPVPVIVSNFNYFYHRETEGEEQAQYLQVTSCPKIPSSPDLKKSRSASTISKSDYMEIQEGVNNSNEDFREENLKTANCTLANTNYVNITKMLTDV

With `CSCC[C@@H]1NC(=O)[C@@H]2CSSC[C@H](NC(=O)[C@@H](N)CCCCN)C(=O)N[C@@H]([C@@H](C)O)C(=O)N[C@@H](C)C(=O)N[C@@H](CO)C(=O)N[C@@H](CCCCN)C(=O)N[C@@H](CCC(N)=O)C(=O)N[C@H]3CSSC[C@H](NC(=O)[C@H](CCCCN)NC(=O)CNC(=O)[C@H](CC(N)=O)NC1=O)C(=O)N[C@@H](CCCNC(=N)N)C(=O)N[C@H](C(=O)N[C@@H](Cc1ccc(O)cc1)C(=O)O)CSSC[C@H](NC(=O)[C@H](C(C)C)NC(=O)[C@@H]1CCCN1C(=O)[C@H](Cc1c[nH]c4ccccc14)NC3=O)C(=O)N[C@@H](CCCCN)C(=O)N[C@@H](CCC(N)=O)C(=O)N[C@@H](CCSC)C(=O)N[C@@H](Cc1ccccc1)C(=O)NCC(=O)N[C@@H](CCCCN)C(=O)N1CCC[C@H]1C(=O)N[C@@H](CC(N)=O)C(=O)NCC(=O)N[C@@H](CCCCN)C(=O)N2` [rBmTX4-P1] (HELM PEPTIDE1{K.C.T.A.S.K.Q.C.W.P.V.C.K.Q.M.F.G.K.P.N.G.K.C.M.N.G.K.C.R.C.Y}$PEPTIDE1,PEPTIDE1,2:R3-23:R3|PEPTIDE1,PEPTIDE1,8:R3-28:R3|PEPTIDE1,PEPTIDE1,12:R3-30:R3$$$V2.0; C-terminus assumed; bridges inferred), in [1] (1 µM), the “inhibition of hKv1.3 channel current (in words)” value is “inhibited the currents of the hKv1.2 and hKv1.3 channels with high affinities”. The 50% inhibitory concentration (IC50) in [1] (mean ± SE, n ≥ 3) was 247 ± 47.9 nM; in data set [2] (mean ± SE, n ≥ 3) it was 45.7 ± 9.2 nM. In addition, the “inhibition of hKv1.2 channel current (in words)” value in [2] (1 µM) was “inhibited the currents of the hKv1.2 and hKv1.3 channels with high affinities”. In addition, the “effect on hKv1.1 channel current (in words)” value in [3] is listed as “hardly inhibited the hKv1.1 channel current”.
Regarding `CSCC[C@@H]1NC(=O)[C@@H]2CSSC[C@H](NC(=O)[C@@H](N)CCCCN)C(=O)N[C@@H]([C@@H](C)O)C(=O)N[C@@H](C)C(=O)N[C@@H](CO)C(=O)N[C@@H](CCCCN)C(=O)N[C@@H](CCC(N)=O)C(=O)N[C@H]3CSSC[C@H](NC(=O)[C@H](CCCCN)NC(=O)CNC(=O)[C@H](CC(N)=O)NC1=O)C(=O)N[C@@H](CCCNC(=N)N)C(=O)N[C@H](C(=O)N[C@@H](Cc1ccc(O)cc1)C(=O)O)CSSC[C@H](NC(=O)[C@H](C(C)C)NC(=O)[C@@H]1CCCN1C(=O)[C@H](Cc1c[nH]c4ccccc14)NC3=O)C(=O)N[C@@H](CCCCN)C(=O)N[C@@H](CCC(N)=O)C(=O)N[C@@H](CCSC)C(=O)N[C@@H](Cc1ccccc1)C(=O)NCC(=O)N[C@@H](CCCCN)C(=O)N1CCC[C@H]1C(=O)N[C@@H](CC(N)=O)C(=O)NCC(=O)N[C@@H](CCCCN)C(=O)N2` [sBmTX4-P1] (HELM PEPTIDE1{K.C.T.A.S.K.Q.C.W.P.V.C.K.Q.M.F.G.K.P.N.G.K.C.M.N.G.K.C.R.C.Y}$PEPTIDE1,PEPTIDE1,2:R3-23:R3|PEPTIDE1,PEPTIDE1,8:R3-28:R3|PEPTIDE1,PEPTIDE1,12:R3-30:R3$$$V2.0; N-terminus and C-terminus assumed; bridges inferred), the “inhibition of rKv4.1 channel currents” value in data set [4] was 7.0 ± 1.8%. Moreover, the “inhibition of hKv3.2 channel currents” value in data set [5] was determined as 5.3 ± 3.1%. Besides, the inhibition at 0.008 µM was 13.6 ± 3.7% in [1] (8 nM, mean ± SE, n ≥ 3, read-out: inhibition rate of hKv1.3 channel current) and 13.5 ± 1.6% in data set [2] (8 nM, mean ± SE, n ≥ 3, read-out: inhibition rate of hKv1.2 channel current). The inhibition at 0.04 µM in [1] (40 nM, mean ± SE, n ≥ 3, read-out: inhibition rate of hKv1.3 channel current) was found to be 32.6 ± 5.3%; in [2] (40 nM, mean ± SE, n ≥ 3, read-out: inhibition rate of hKv1.2 channel current), 40.2 ± 3.7%. For the same compound, the inhibition at 0.2 µM in [1] (200 nM, mean ± SE, n ≥ 3, read-out: inhibition rate of hKv1.3 channel current) amounted to 60.7 ± 2.9%; in data set [2] (200 nM, mean ± SE, n ≥ 3, read-out: inhibition rate of hKv1.2 channel current), 66 ± 6.3%. Further, the inhibition at 1 µM in [1] (setting [10]) came to 73.1 ± 2.8%; in [7], 35.7 ± 2.1%; in [2] (setting [10]), 88.4 ± 2%. The IC50 was 124 ± 26.7 nM in data set [1] (mean ± SE, n ≥ 3) and 74.7 ± 7 nM in data set [2] (mean ± SE, n ≥ 3). In data set [6], the “inhibition of rKv4.2 channel currents” value was found to be 6.9 ± 4.6%. Moreover, the “inhibition of hKv1.1 channel currents” value in data set [3] (transiently transfected HEK293 cells, mean ± SE) is listed as 5.9 ± 1.5%. Further, in [8], the “inhibition of mKv4.3 channel currents” value is 6.8 ± 2.8%. The “inhibition of hKv1.6 channel currents” value in [9] was 18.3 ± 4.3%.

One may read the IC50 as the concentration that gives 50% inhibition. Broadly, the inhibition is the change of the read-out against control, counted positive when it falls.
